# Patent US20060149043A1, “Fluorescent lanthadine complex” (Japan Science and Technology Agency, priority 2003, published 2006)
# How the values were obtained:
# [1] = Time resolved luminescence measurement of europium (III) complexes (luminescence, lifetime, water coordination number); format: physicochemical; details: europium (III) complex
# Experimental: Compounds 8, 11 and 15 each were dissolved in dimethylsulfoxide to prepare 10 mM stock solutions. In addition, europium (III) chloride hexahydrate was dissolved in dimethylsulfoxide to prepare a 10 mM stock solution. Equal volumes of the europium (III) chloride hexahydrate solution were added to the individually prepared solutions of Compounds 8, 11 and 15, and the resulting solutions were left standing for 30 minutes at room temperature to prepare the europium (III) complexes of the Compounds 8, 11 and 15. These solutions were diluted using 100 mM HEPES buffer solution (pH 7.4), and the luminescences of the 8 μM solutions were measured.
# (§1) Luminescences were measured using a time resolved measurement. Luminescences were measured for all complexes at an excitation wavelength of 330 nm, a delay time of 0.05 ms and a gate time of 1.00 ms. In addition, the luminescence lifetimes were measured using an excitation wavelength of […], and the luminescence wavelengths were measured using 545 nm for individual terbium complexes and 615 nm for individual europium complexes [100 mM HEPES buffer (pH 7.4) in each 8 μM].
# In addition, the luminescence spectra of the europium (III) complexes of Compounds 8, 11 and 15 are shown in FIG. 12, and their luminescence life and water coordination numbers are shown in Table 2.
# [2] = Time resolved luminescence measurement of terbium (III) complexes (luminescence, lifetime, water coordination number); format: physicochemical; details: terbium (III) complex
# Experimental: Compounds 8, 11 and 15 each were dissolved in dimethyl sulfoxide to prepare 10 mM stock solutions. In addition, terbium (III) chloride hexahydrate was dissolved in dimethyl sulfoxide to prepare a 10 mM stock solution. Equal volumes of the terbium (III) chloride hexahydrate solution prepared were added to the individually prepared solutions of Compounds 8, 11 and 15, and, the resulting solutions were left standing for 30 minutes at room temperature to prepare terbium (III) complexes of Compounds 8, 11 and 15. The solutions were diluted using a 100 mM HEPES buffer (pH 7.4), and the luminescences of 8 μM solutions were measured.
# as §1
# The luminescence spectra of the terbium (III) complexes of Compounds 8, 11 and 15 are shown in FIG. 11, and their luminescence life and water coordination numbers are shown in Table 1.
# [3] = 8 μM, 100 mM HEPES buffer (pH 7.4), excitation 330 nm, delay time 0.05 ms, gate time 1.00 ms
smiles,measurement,setting,value
Cc1cc(=O)[nH]c2cc(NC(=O)CN(CCN(CCN(CC(=O)O)CC(=O)O)CC(=O)O)CC(=O)O)ccc12 [DTPA-cs124],Water coordination number,[1],1.34
same,Life time (H2O),"[1]; 8 μM in 100 mM HEPES buffer (pH 7.4), luminescence wavelength 615 nm, H2O",0.59 ms
same,Luminescence emission (intensity),[1]; [3],almost identical
same,Life time (D2O),"[1]; luminescence wavelength 615 nm, D2O",2.38 ms
same,Water coordination number,[2],1.23
same,Life time (H2O),"[2]; 8 μM in 100 mM HEPES buffer (pH 7.4), luminescence wavelength 545 nm, H2O",1.46 ms
same,Luminescence emission (intensity),[2]; [3],almost identical
same,Life time (D2O),"[2]; luminescence wavelength 545 nm, D2O",2.55 ms
